Measurements as given in article PMC6910931, “Converging TLR9 and PI3Kgamma signaling induces sterile inflammation and organ damage” (Scientific Reports, 2019).
Entries after “also recorded” stand apart in the source; their conditions may differ.

Legend:
C57BL/6 mice [1] = experiment: APAP-induced liver injury (DILI) model; type: in vivo; details: for reduction in serum ALT levels: AS605240 20 mg/Kg oral 6 and 12 hours after APAP
Protocol: Mice were fasted for 15 hours before oral APAP administration (500 mg/Kg) or vehicle (sterile saline). After 24 hours mice were anesthetized for respiratory mechanics analysis (described below) and then killed for blood (serum), liver, bronchoalveolar lavage fluid (BALF), and lung collection. Alanine aminotransferase (ALT) levels were measured in the serum using an enzyme activity test (Bioclin). The myeloperoxidase activity assay was performed as described before. BALF was performed by washing the lungs twice with 1 mL of PBS 10 mM EDTA with a polyethylene cannula 18 G resulting in a total of 2 mL of lavage. Cells were centrifuged and used for total cell count and differential cell count after Romanowsky staining (Panótico Rápido LB)[59]. Fragments of liver and the left lobe of the lungs were fixed and then sectioned for histological analysis (Haematoxylin and Eosin). For the drug-induced liver injury model, mice were orally treated with AS605240 6 and 12 hours after APAP treatment or with n-Acetylcysteine (NAC) 1 hour before APAP or 6 and 12 hours after APAP treatment. AS605240 was diluted in 0,9% Saline + 0.5% CMC + 0.1% Tween 20 and given in a dose of 20 mg/Kg and NAC was diluted in 0.9% saline and given in a dose of 600 mg/Kg.
Animals were anesthetized with a mixture of Ketamine/Xylazine (200 mg/Kg and 15 mg/Kg, respectively) as indicated by Buxco. Dynamic compliance (mL/cm H2O), lung resistance (cm H2O × s/mL) and Forced Expiratory Volume at 100 ms (FEV100) (mL) were assessed in tracheostomized and mechanically ventilated mice using Forced Manoeuvres Platform (Buxco)[53].
(§1) In this study, female C57BL/6 mice from 8 to 12 weeks of age were used in all experiments except for the chimaera mice. Animals were obtained from the UFMG’s Centro de Bioterismo and kept in the Laboratório de Imunofarmacologia with food and water ad libitum and day/night light cycles. For all investigations, mice were humanely sacrificed using an intra-peritoneal overdose of Ketamine/Xylazine at a dose equivalent to at least five times the dose used for anesthetising the mice. The animal studies presented here were registered and approved by the UFMG’s Comitê de Ética em Utilização Animal (CEUA) No. 191/2010 and 51/2011 and all the procedures were performed in accordance with the guidelines of the Conselho Nacional De Controle De Experimentação Animal’s resolution of Brazilian Ministry of Science, Technology, Innovation and Communication.

C57BL/6 mice [2] = experiment: CpG-induced pleurisy model; type: in vivo; details: CpG 750 ng/cavity, 12 hours
Protocol: Animals received one single injection of C-class CpG in the pleural cavity with the indicated dose of agonist. At indicated timepoints, mice were anesthetized intraperitoneally with a mixture of Ketamine/Xylazine and then killed with overdose of intravenous anaesthetic (80 mg/Kg and 15 mg/Kg, respectively). Pleural cavity was washed two times with 1 mL of PBS 10 mM EDTA resulting in a total of 2 mL of lavage. Cells were centrifuged and used for total cell count and differential cell count after Romanowsky staining (Panótico Rápido LB). For the pleurisy model, mice were orally treated with AS605240 twice: 1 h prior the CpG injection and then 6 h after CpG, 20 mg/kg diluted in 0,9% Saline + 0.5% CMC + 0.1% Tween 20.
as §1

[3] = APAP 500 mg/Kg, AS605240 20 mg/Kg, vs WT mice

SMILES	lung remote damage (histological score of lung) (C57BL/6 mice [1]; APAP 500 mg/Kg, AS605240 20 mg/Kg)	reduction in serum ALT levels (C57BL/6 mice [1]; APAP 500 mg/Kg, 24 h)	reduction in serum ALT levels (C57BL/6 mice [1]; APAP 500 mg/Kg, 24 h, listed as AS650240)	ALT levels in the serum (C57BL/6 mice [1]; [3])	MPO levels in the liver (C57BL/6 mice [1]; [3])	areas of necrotic tissue in the liver (C57BL/6 mice [1]; [3])	migration of mononuclear cells into the pleural cavity (C57BL/6 mice [2]; AS605240 20 mg/kg oral)	neutrophil recruitment into the pleural cavity (C57BL/6 mice [2]; AS605240 20 mg/kg oral)	total leukocytes recruited into the pleural cavity (C57BL/6 mice [2]; AS605240 20 mg/kg oral 1 h prior and 6 h after CpG, vs untreated WT)	serum ALT levels, therapeutic treatment (C57BL/6 mice [1]; NAC 600 mg/Kg 6 and 12 hours after APAP, 24 h)	serum ALT levels, prophylactic treatment (C57BL/6 mice [1]; NAC 600 mg/Kg 1 hour before APAP, 24 h)
O=C1NC(=O)/C(=C\c2ccc3nccnc3c2)S1 [AS605240]	reduce lung remote damage	approximately 50%	50%	lower levels of ALT in the serum	lower MPO levels in the liver	less areas of necrotic tissue	lower effect	reduced neutrophil recruitment	less leukocytes recruited into the pleural cavity	–	–
CC(=O)N[C@@H](CS)C(=O)O [NAC, N-acetyl-cysteine]	–	–	–	–	–	–	–	–	–	not able to reduce ALT levels; also recorded: no impact	completely abrogated the rise of ALT levels
